Results as given in patent US20150050299A1, “METHODS FOR ENHANCING IMMUNE RESPONSE” (priority 2010, published 2015).

Tests used:
Type in all cases: cell-based
Conditions in all cases: 10 μM
human TLR9 = target: T1, human TLR9 (Homo sapiens, UniProt Q9NR96); assay: Toll-Like Receptor (TLR) screening assay, TLR9
T1 sequence (Q9NR96 26-1032): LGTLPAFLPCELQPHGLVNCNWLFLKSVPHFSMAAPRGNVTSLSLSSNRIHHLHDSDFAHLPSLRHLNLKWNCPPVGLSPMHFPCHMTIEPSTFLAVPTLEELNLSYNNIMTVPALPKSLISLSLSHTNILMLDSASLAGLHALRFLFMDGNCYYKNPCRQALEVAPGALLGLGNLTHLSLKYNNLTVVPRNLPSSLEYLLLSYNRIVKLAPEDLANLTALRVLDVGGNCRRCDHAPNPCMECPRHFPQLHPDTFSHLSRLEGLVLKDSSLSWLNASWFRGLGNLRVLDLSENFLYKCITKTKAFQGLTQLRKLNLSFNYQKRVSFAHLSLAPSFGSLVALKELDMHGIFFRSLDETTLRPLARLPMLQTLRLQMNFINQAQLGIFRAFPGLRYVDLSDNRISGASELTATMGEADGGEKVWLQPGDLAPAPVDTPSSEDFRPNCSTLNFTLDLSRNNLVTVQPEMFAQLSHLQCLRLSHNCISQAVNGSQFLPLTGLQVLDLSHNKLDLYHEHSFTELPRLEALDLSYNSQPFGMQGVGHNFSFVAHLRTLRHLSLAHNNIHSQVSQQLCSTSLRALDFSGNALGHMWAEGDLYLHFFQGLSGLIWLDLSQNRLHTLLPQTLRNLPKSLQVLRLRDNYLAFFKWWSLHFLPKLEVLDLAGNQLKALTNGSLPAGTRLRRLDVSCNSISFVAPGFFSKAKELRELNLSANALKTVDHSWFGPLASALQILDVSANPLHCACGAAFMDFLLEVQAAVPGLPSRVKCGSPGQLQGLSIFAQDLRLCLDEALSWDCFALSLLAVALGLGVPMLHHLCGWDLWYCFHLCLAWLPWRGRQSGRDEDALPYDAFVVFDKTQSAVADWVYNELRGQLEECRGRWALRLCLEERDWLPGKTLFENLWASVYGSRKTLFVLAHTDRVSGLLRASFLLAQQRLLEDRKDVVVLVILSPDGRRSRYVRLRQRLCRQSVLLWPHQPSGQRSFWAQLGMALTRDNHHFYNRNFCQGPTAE

human TLR3 = target: T2, human TLR3 (Homo sapiens, UniProt O15455); assay: Toll-Like Receptor (TLR) screening assay, TLR3
T2 sequence (O15455 24-904): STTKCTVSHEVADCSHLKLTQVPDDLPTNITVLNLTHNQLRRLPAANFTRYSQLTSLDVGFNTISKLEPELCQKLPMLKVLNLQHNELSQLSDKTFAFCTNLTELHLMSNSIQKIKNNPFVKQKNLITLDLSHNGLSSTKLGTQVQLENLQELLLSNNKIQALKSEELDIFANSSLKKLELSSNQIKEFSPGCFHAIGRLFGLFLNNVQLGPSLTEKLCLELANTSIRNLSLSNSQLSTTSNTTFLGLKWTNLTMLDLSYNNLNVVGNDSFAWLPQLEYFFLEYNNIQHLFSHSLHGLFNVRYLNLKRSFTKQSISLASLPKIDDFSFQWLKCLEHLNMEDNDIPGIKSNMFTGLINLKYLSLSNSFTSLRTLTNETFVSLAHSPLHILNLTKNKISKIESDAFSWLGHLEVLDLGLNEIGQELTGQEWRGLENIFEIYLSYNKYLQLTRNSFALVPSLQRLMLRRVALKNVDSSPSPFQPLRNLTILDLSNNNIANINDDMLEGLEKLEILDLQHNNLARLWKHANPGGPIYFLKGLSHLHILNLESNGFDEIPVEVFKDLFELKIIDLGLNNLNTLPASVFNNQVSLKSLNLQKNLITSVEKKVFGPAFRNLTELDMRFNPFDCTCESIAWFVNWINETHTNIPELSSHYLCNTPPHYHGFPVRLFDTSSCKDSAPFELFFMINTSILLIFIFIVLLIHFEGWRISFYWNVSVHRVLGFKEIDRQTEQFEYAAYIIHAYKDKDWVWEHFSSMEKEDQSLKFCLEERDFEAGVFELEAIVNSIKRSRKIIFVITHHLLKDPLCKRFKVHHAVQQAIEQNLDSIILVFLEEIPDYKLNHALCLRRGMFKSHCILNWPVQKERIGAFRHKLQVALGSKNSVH

human TLR7 = target: T3, human TLR7 (Homo sapiens, UniProt Q9NYK1); assay: Toll-Like Receptor (TLR) screening assay, TLR7
T3 sequence (Q9NYK1 27-1049): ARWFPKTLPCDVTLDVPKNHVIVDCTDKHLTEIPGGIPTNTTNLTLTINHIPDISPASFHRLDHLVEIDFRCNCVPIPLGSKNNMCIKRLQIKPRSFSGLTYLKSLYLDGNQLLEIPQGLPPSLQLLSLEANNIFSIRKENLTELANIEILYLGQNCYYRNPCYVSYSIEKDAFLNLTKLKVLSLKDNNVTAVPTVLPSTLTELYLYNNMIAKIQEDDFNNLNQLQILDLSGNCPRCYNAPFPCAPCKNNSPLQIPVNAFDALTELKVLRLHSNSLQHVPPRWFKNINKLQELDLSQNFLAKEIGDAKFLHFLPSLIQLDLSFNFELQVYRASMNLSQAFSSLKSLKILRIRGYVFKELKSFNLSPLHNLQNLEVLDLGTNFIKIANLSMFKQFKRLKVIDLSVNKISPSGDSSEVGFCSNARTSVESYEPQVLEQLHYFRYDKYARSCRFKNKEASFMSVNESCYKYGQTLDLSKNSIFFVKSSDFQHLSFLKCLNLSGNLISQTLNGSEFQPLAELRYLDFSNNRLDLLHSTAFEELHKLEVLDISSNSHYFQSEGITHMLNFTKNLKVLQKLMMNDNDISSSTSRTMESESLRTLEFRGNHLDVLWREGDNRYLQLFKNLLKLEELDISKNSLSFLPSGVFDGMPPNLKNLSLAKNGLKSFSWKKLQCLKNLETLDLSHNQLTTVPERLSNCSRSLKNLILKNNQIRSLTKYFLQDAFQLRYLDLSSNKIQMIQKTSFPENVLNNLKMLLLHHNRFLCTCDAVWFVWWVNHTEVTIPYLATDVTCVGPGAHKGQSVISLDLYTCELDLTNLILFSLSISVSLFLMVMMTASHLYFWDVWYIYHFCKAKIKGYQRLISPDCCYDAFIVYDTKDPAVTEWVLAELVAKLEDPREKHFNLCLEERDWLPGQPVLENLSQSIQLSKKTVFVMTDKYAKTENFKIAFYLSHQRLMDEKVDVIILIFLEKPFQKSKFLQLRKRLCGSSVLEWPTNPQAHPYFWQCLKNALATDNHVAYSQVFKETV

CCCCCCCCCCCCCCCC(=O)NCCCC[C@@H](N)C(=O)NCCCNCCCCNCCCN [AMXT 1501, D-Lys(C16acyl)-Spm]
no significant activity: activity on TLR9 (human TLR9) | activity on TLR3 (human TLR3) | activity on TLR7 (human TLR7)
